This is an account of results in US20250312345A1, “NON-COVALENT INHIBITORS OF THE MAIN PROTEASE OF SARS-COV-2 AND METHODS OF USE” (YALE UNIVERSITY, priority 2022, published 2025).

Structures are written as SMILES. Like-named read-outs stand apart in the source and are kept apart here. A value given as a limit tells only on which side of the number the result lay.

Data set [1] relates to Vero E6 cells. The conditions noted are these: African green monkey.
The test system of data set [2] is normal human bronchial epithelial cells (NHBE). The following applies: for CC50: human.
Data set [3] can be described thus: Thermodynamic aqueous solubility, shake-flask. It counts as physicochemical. The conditions noted are these: 48 h. How it is done:
The calibration and measurement (after 48 h of stirring) were performed on the same day.

Data set [4] concerns SARS-CoV-2 replicon. Description: microbe, parasite or virus in culture. The class given is cell-based. The conditions noted are these: for IC50: read-out: calculated IC50, compound alone.
The next data set has as its target HERG ion channel (Homo sapiens, UniProt Q12809). Description: In vitro pharmacological profiling, HERG. The conditions noted are these: at high concentrations. On the procedure: (§1) Rows represent compounds tested and columns represent targets. Percentage inhibition at 10 μM concentration of the compounds is color-coded. A panel of 35 targets including CYP450 isoforms, ions channels, receptors examined for off-target effects.

Data set [5] concerns SARS-CoV-2 replicon. It counts as cell-based.
Data set [6] deals with panel of 35 targets including CYP450 isoforms, ions channels, receptors. Description: In vitro pharmacological profiling against targets for adverse drug reactions. The conditions noted are these: percentage inhibition at 10 μM. How it is done:
as §1

A further data set deals with SARS-CoV-2 replication. In words: Serum and lung tissue extracts tested on SARS-CoV-2 replication in cell culture. It counts as cell-based. The following applies: extracts of mice dosed with compound 61.
A further data set in a line: PAMPA assay. The following applies: PBS pH 7.4, 5% DMSO, 18 hours, room temperature.
A further data set has as its target SARS-CoV-2 M^pro (Severe acute respiratory syndrome coronavirus 2, UniProt P0DTD1). In words: biochemical. The class given is biochemical.
Data set [7] deals with normal human bronchial epithelial cells (NHBE). The following applies: cited from earlier work.
The test system of data set [8] is Vero E6 cells. The following applies: cited from earlier work.
The mark [9] stands for this setting: Britton-Robinson buffer pH 6.5, shake-flask, 21-22° C.
Where [10] appears, read: read-out: CC50 NHBE, Table 3, marked g: Zhang et al., ACS Cent. Sci. 2021.
Where [11] appears, read: 13 combined with remdesivir, MacSynergy II.
Where [12] appears, read: read-out: CC50 Vero E6, Table 3, marked g: Zhang et al., ACS Cent. Sci. 2021.

Chain of HERG ion channel (Q12809 whole entry, canonical isoform): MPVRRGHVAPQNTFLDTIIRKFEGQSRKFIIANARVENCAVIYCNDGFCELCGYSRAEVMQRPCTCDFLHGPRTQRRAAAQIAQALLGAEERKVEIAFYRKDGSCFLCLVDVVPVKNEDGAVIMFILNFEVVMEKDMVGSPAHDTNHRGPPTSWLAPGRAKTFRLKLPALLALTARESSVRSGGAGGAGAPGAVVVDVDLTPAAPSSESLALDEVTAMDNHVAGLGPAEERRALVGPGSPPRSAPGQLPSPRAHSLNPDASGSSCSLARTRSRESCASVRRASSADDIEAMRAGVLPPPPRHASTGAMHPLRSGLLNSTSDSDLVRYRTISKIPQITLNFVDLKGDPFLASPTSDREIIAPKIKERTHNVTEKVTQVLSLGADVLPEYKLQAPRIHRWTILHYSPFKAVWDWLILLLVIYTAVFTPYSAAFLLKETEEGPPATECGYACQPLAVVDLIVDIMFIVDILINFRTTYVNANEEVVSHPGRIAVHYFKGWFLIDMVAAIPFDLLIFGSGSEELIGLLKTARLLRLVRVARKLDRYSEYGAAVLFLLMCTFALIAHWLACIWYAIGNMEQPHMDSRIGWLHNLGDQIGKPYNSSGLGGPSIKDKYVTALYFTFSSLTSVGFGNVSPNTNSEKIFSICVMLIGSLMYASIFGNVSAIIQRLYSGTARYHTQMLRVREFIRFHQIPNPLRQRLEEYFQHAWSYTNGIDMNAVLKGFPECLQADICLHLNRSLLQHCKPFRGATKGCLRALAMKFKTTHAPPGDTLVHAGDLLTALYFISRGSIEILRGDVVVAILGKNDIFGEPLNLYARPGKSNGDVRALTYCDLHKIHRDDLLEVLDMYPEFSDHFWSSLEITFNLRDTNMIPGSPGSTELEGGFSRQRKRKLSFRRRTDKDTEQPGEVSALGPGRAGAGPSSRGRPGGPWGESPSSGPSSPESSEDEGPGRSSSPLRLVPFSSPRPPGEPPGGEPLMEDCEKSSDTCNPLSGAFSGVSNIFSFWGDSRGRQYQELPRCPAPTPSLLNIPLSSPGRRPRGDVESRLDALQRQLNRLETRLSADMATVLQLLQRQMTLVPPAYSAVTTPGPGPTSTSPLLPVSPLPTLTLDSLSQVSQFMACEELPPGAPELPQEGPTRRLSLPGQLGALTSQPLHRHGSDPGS

With `Cn1cc(-c2cc(-c3cc(Cl)cc(OCC4CC4)c3)c(=O)n(-c3cccnc3)c2)c(=O)[nH]c1=O` [compound 57], the CC50 in the data set on Vero E6 cells [1] was 82 µM; in [2], greater than 100 µM. In addition, the aq. sol. in data set [3] (setting [9]) worked out at 14.2 ± 0.7 µg/mL.
As for `N#Cc1ccccc1-c1cc(-c2cc(Cl)cc(OCCC(F)(F)F)c2)c(=O)n(-c2cccnc2)c1` [Compound 47, 2-(3-(3-Chloro-5-(3,3,3-trifluoropropoxy)phenyl)-2-oxo-2H-[1,3′-bipyridin]-5-yl)benzonitrile], in data set [2], the “cytotoxicity towards NHBE cells” value is on record as “more cytotoxic”.
With `N#Cc1ccccc1-c1cc(-c2cc(Cl)cc(Cl)c2)c(=O)n(-c2cccnc2)c1` [Compound 9, 2-(3-(3,5-Dichlorophenyl)-2-oxo-2H-[1,3′-bipyridin]-5-yl)benzonitrile], the IC50 in the data set on SARS-CoV-2 replicon [4] (Severe acute respiratory syndrome coronavirus 2, BHK) was 0.0938 µM.
Take `Cn1cc(-c2cc(-c3cc(Cl)c(F)c(OCc4ccccc4Cl)c3)c(=O)n(-c3cccnc3)c2)c(=O)[nH]c1=O` [Compound 61]: the “inhibition of HERG ion channel” value at HERG ion channel is reported as “minimal inhibition”. Further, the “combination effect with EIDD-1931” value in the data set with SARS-CoV-2 replicon [5] (combination of EIDD-1931 and compound 61, FIG. 6) is “synergistic effect”. The CC50 is greater than 32 µM in “in vitro”, greater than 32.5 µM with Vero E6 cells [1] and greater than 32.5 µM in data set [2]. Further, the “off-target effects” value in data set [6] was “no significant off-target effects”. Besides, the “inhibition of SARS-CoV-2 replication by serum and lung tissue extracts” value with SARS-CoV-2 replication is listed as “exhibited inhibition”. This compound also gave an aq. sol. in [3] (setting [9]) of 116.5 ± 8.8 µg/mL.
Consider `O=c1[nH]cc(-c2cc(-c3cc(Cl)c(F)c(OCc4ccccc4Cl)c3)c(=O)n(-c3cccnc3)c2)c(=O)[nH]1` [compound 43], for which, in the data set “PAMPA assay”, the PAMPA permeability is listed as 0.73 ± 0.05 10^−6 cm/s. For the same compound, the figures for the CC50 (in the data set on Vero E6 cells [1]; in [2]) were greater than 80 µM and greater than 95 µM, respectively. The compound also yielded an aq. sol. in data set [3] (setting [9]) of 21.8 ± 0.9 µg/mL.
`O=c1c(-c2cc(Cl)cc(OCC3CC3)c2)cc(-c2ccc(F)cc2F)cn1-c1cccnc1` [Cmpd 55] gave an IC50 against SARS-CoV-2 M^pro (Table 4) of roughly 10 µM.
Same read-out and setting: to `CCNC(=O)COc1cc(Cl)cc(-c2cc(-c3ccccc3C#N)cn(-c3cccnc3)c2=O)c1` [Cmpd 33] belongs 0.5 to 1 µM; to `N#Cc1[nH]c(=O)ccc1-c1cc(-c2cccc(Cl)c2)c(=O)n(-c2cccnc2)c1` [Cmpd 23], roughly 10 µM; to `COc1ccc(-c2cc(-c3cccc(Cl)c3)c(=O)n(-c3cccnc3)c2)c(C#N)n1` [Cmpd 22], 10 to 100 µM.
On to `Cn1cc(-c2cc(-c3cc(Cl)cc(OCc4ocnc4C(F)(F)F)c3)c(=O)n(-c3cccnc3)c2)c(=O)[nH]c1=O` [Cmpd 65], for which the aq. sol. in data set [3] (setting [9]) worked out at 34.5 ± 0.3 µg/mL.
For the compound `Cc1scnc1COc1cc(Cl)cc(-c2cc(-c3c[nH]c(=O)[nH]c3=O)cn(-c3cccnc3)c2=O)c1` [compound 51], the CC50 with Vero E6 cells [1] is greater than 100 µM; in data set [2] it was 22 µM.
As for `O=c1[nH]cc(-c2cc(-c3cc(Cl)cc(OCc4ccccc4)c3)c(=O)n(-c3cccnc3)c2)c(=O)[nH]1` [Compound 21], the half-inhibitory concentration (IC50) at SARS-CoV-2 M^pro (read-out: IC50 (μM), inhibition of SARS-CoV-2 M^pro, Table 1 and text, 100 nM M^pro, FRET substrate, triplicate) was 0.128 µM.
Take `Cn1cc(-c2cc(-c3cc(Cl)cc(OCCC(F)(F)F)c3)c(=O)n(-c3cccnc3)c2)c(=O)[nH]c1=O` [compound 60]: the CC50 in the data set on Vero E6 cells [1] is greater than 100 µM; in data set [2], roughly 95 µM. The compound further gave an aq. sol. in data set [3] (setting [9]) of 57.0 ± 0.4 µg/mL.
Regarding `Cn1cc(-c2cc(-c3cc(Cl)cc(OCc4scnc4C(F)(F)F)c3)c(=O)n(-c3cccnc3)c2)c(=O)[nH]c1=O` [compound 64], the PAMPA permeability in the data set “PAMPA assay” is recorded as 1.16 ± 0.32 10^−6 cm/s. Besides, the CC50 (in the data set on Vero E6 cells [1]; in [2]) was greater than 100 µM in each case. The same compound yielded an aq. sol. in data set [3] (setting [9]) of 24.8 ± 1.4 µg/mL.
Regarding `N#Cc1ccccc1-c1cc(-c2cc(Cl)cc(Cl)c2)c(=O)n(-c2ccc[n+]([O-])c2)c1` [Cmpd 11], the IC50 on SARS-CoV-2 M^pro (Table 4) lay within 5 to 20 µM.
Same read-out and setting: the value for `N#Cc1ccccc1-c1cc(-c2cccc(Cl)c2)c(=O)n(-c2ccc[n+]([O-])c2)c1` [Cmpd 10] was 15.6 ± 2.37 µM.
As to `N#Cc1cccc(-c2cc(-c3c[nH]c(=O)[nH]c3=O)cn(-c3cccnc3)c2=O)c1` [Cmpd 19], at SARS-CoV-2 M^pro (Table 4), the IC50 is roughly 10 µM.
Turning to `Cn1ccnc1COc1cc(Cl)cc(-c2cc(-c3ccccc3C#N)cn(-c3cccnc3)c2=O)c1` [Cmpd 59], the IC50 against SARS-CoV-2 M^pro (Table 4) was roughly 0.194 µM.
On to `O=c1nc(NO)ccn1[C@@H]1O[C@H](CO)[C@@H](O)[C@H]1O` [EIDD-1931, reference compound], for which the IC50 in the data set on SARS-CoV-2 replicon [4] is 2.23 µM.
Compound `O=c1[nH]cc(-c2cc(-c3cc(Cl)cc(OCC4CC4)c3)c(=O)n(-c3cncc4ccccc34)c2)c(=O)[nH]1` [Cmpd 66] showed a concentration for half-maximal inhibition (IC50) at SARS-CoV-2 M^pro (Table 4) of 0.04 ± 0.002 µM.
With `Cc1ocnc1COc1cc(Cl)cc(-c2cc(-c3ccccc3C#N)cn(-c3cccnc3)c2=O)c1` [compound 50], the PAMPA permeability in the data set “PAMPA assay” is reported as 3.04 ± 0.09 10^−6 cm/s. Moreover, the aq. sol. in data set [3] (setting [9]) was found to be 13.1 ± 0.3 µg/mL.
Consider `O=c1[nH]cc(-c2cc(-c3cc(Cl)cc(OCc4ocnc4C(F)(F)F)c3)c(=O)n(-c3cccnc3)c2)c(=O)[nH]1` [compound 62], for which, in the data set “PAMPA assay”, the PAMPA permeability is reported as 0.57 ± 0.09 10^−6 cm/s. Moreover, the CC50 (in the data set on Vero E6 cells [1]; in data set [2]) was greater than 100 µM each time.
For the compound `N#Cc1ccccc1-c1cc(-c2cc(Cl)cc(OCC3CC3)c2)c(=O)n(-c2cccnc2)c1` [Compound 39, 2-(3-(3-Chloro-5-(cyclopropylmethoxy)phenyl)-2-oxo-2H-[1,3′-bipyridin]-5-yl)benzonitrile], in the data set “PAMPA assay”, the PAMPA permeability is reported as 4.27 ± 0.07 10^−6 cm/s. The CC50 (in [7]; in the data set on Vero E6 cells [8]) was greater than 100 µM in each case. This compound came in with an aq. sol. in data set [3] (setting [9]) of 3 ± 2 µg/mL.
`Cc1ocnc1COc1cc(Cl)cc(-c2cc(-c3c[nH]c(=O)[nH]c3=O)cn(-c3cccnc3)c2=O)c1` [Cmpd 49] yielded an aq. sol. in [3] (setting [9]) of 7.6 ± 0.7 µg/mL.
Turning to `COc1cc(CCOc2cc(Cl)cc(-c3cc(-c4ccccc4C#N)cn(-c4cccnc4)c3=O)c2)cc(OC)c1` [Cmpd 30], on SARS-CoV-2 M^pro (Table 4), the IC50 is greater than 1 µM.
On the same count and under the same terms, the value for `CN(C)c1ccc(C#N)c(-c2cc(-c3cc(Cl)cc(OCC4CC4)c3)c(=O)n(-c3cccnc3)c2)c1` [Cmpd 58] was 1.3 ± 0.2 µM.
`CCCOc1cc(Cl)cc(-c2cc(-c3ccccc3C#N)cn(-c3cccnc3)c2=O)c1` [Compound 13, 2-(3-(3-Chloro-5-propoxyphenyl)-2-oxo-2H-[1,3′-bipyridin]-5-yl)benzonitrile]: the CC50 in data set [7] (setting [10]) is 20 ± 2 µM. Further, in the data set with SARS-CoV-2 replicon [5] (setting [11]), the mean antagonism volume turned out to be 0 M^2% and the mean synergy volume came out at 30.8 M^2%. Moreover, the “combination behavior with remdesivir” value with SARS-CoV-2 replicon [5] (range of combinations of 13 and remdesivir, FIG. 3) is “statistically significant synergistic behavior”. The “factor of improvement in potency over 9” value at SARS-CoV-2 M^pro (IC50 of 13 versus 9) is “ca. 30”. The CC50 with Vero E6 cells [8] (setting [12]) is 22 ± 7.2 µM.
As for `COc1cc(F)cc(-c2cc(-c3c[nH]c(=O)[nH]c3=O)cn(-c3cccnc3)c2=O)c1` [Cmpd 20], the IC50 against SARS-CoV-2 M^pro (Table 4) lay in the range of 10 to 100 µM.
On the same count and under the same terms, the value for `N#Cc1ccc(F)cc1-c1cc(-c2cc(Cl)cc(OCC3CC3)c2)c(=O)n(-c2cccnc2)c1` [Cmpd 56] was 0.427 ± 0.027 µM.
Turning to `O=c1ccn(-c2cc(-c3ccccc3)c(=O)n(-c3cccnc3)c2)c(=O)[nH]1` [Cmpd 1], on SARS-CoV-2 M^pro (Table 4), the IC50 came to 100 µM.
`CCC(CC)COC(=O)[C@H](C)N[P@](=O)(OC[C@H]1O[C@@](C#N)(c2ccc3c(N)ncnn23)[C@H](O)[C@@H]1O)Oc1ccccc1` [remdesivir, reference compound]: the CC50 in [7] (setting [10]) was 41 ± 2 µM; in the data set on Vero E6 cells [8] (setting [12]), 72 ± 28 µM.
Turning to `O=c1[nH]cc(-c2cc(-c3cc(Cl)cc(OCc4ccc(F)cc4Cl)c3)c(=O)n(-c3cccnc3)c2)c(=O)[nH]1` [Compound 48, 5-(3-(3-Chloro-5-((2-chloro-4-fluorobenzyl)oxy)phenyl)-2-oxo-2H-[1,3′-bipyridin]-5-yl)pyrimidine-2,4(1H,3H)-dione], the values for the CC50 (in data set [7]; in the data set with Vero E6 cells [8]) were 25 ± 5 µM and 22 ± 8 µM, respectively. In the data set on SARS-CoV-2 replicon [4] (Table 3), this compound displayed an EC50 of 120 ± 0.2 µM. In data set [3] (pH 6.5), this compound gave an aq. sol. of 25.0 ± 0.1 µg/mL.
Compound `O=c1ccn(-c2cc(-c3cc(Cl)cc(OCC4CC4)c3)c(=O)n(-c3cccnc3)c2)c(=O)[nH]1` [Cmpd 54] yielded a concentration for half-maximal inhibition (IC50) against SARS-CoV-2 M^pro (Table 4) of 1.2 ± 0.1 µM.
`O=c1[nH]cc(-c2cc(-c3cc(Cl)cc(OCc4scnc4C(F)(F)F)c3)c(=O)n(-c3cccnc3)c2)c(=O)[nH]1` [compound 63]: the CC50 (in the data set on Vero E6 cells [1]; in data set [2]) was greater than 100 µM throughout.
